IC50 data for 27 molecules are collected here from EP1534716B1, “HETEROBICYCLIC PYRAZOLE DERIVATIVES AS KINASE INHIBITORS” (priority 2002, dated 2004).

Molecules are shown by their SMILES.

PAK4, sequence (O96013 whole entry, species assumed): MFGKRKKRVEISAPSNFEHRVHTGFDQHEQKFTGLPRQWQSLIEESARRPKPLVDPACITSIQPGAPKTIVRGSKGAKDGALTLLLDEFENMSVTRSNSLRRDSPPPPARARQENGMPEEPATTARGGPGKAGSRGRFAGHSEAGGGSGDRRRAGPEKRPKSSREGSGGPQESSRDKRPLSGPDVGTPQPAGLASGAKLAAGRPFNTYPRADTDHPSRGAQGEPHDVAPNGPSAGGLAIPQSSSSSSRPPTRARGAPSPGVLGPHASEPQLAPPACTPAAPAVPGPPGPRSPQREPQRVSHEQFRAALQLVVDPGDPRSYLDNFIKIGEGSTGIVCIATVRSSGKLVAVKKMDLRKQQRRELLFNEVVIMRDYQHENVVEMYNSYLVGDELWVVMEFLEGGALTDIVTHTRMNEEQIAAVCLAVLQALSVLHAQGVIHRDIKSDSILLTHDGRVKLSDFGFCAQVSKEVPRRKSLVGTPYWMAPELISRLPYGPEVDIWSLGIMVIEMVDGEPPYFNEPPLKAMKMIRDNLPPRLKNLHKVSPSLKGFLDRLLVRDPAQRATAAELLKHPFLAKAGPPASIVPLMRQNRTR

In one assay the target is T1, Aurora-2 (Homo sapiens, UniProt O14965).
T1 sequence (O14965 1-403): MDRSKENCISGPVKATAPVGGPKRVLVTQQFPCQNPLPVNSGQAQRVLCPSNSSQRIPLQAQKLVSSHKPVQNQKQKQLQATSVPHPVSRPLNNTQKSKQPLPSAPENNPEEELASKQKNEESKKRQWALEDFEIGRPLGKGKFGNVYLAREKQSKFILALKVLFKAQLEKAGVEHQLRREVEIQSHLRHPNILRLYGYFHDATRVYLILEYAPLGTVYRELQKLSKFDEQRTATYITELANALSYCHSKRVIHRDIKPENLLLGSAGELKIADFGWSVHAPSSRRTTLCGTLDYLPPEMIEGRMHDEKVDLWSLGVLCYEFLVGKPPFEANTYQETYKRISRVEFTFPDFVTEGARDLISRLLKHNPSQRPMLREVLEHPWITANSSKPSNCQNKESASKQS
Kind of assay: Inhibition assay of Aurora-2 activity (SPA). The settings on record: 10 µM ATP, 60 minutes at room temperature. The assay is classed as biochemical. The procedure:
(§1) The inhibiting activity of putative cdk/cyclin inhibitors and the potency of selected compounds is determined through a method of assay based on the use of the SPA technology (Amersham Pharmacia Biotech).
(§2) The assay consists of the transfer of radioactivity labelled phosphate moiety by the kinase to a biotinylated substrate. The resulting 33P-labelled biotinylated product is allowed to bind to streptavidin-coated SPA beads (biotin capacity 130 pmol/mg), and light emitted was measured in a scintillation counter.
(§3) Experimental data were analyzed by the computer program GraphPad Prizm using the four parameter logistic equation: [formula] where x is the logarithm of the inhibitor concentration, y is the response; y starts at bottom and goes to top with a sigmoid shape.
Inhibition assay of Aurora-2 activity
After 60 minutes at room temperature incubation, reaction was stopped and biotinylated peptide captured by adding 100 µl of bead suspension.
Stratification: 100 µl of CsC12 5 M were added to each well and let stand 4 hour before radioactivity was counted in the Top-Count instrument.
IC50 determination: see above
As a reminder, the IC50 is the concentration that gives 50% inhibition. Read a high IC50 as weaker potency. `CCNC(=O)c1cc2[nH]nc(NC(=O)c3ccc(C(C)(C)C)cc3)c2s1` [Compound 66, 3-[(4-tert-butylbenzoyl)amino]-N-ethyl-1H-thieno[3,2-c]pyrazole-5-carboxamide]: the IC50 is less than 100 nM.

`CCCCNC(=O)c1cc2[nH]nc(NC(=O)c3cccs3)c2s1` [Compound 79, N-butyl-3-[(thien-2-ylcarbonyl)amino]-1H-thieno[3,2-c]pyrazole-5-carboxamide] had an IC50 of less than 100 nM. Same read-out and setting: as for `C[C@@H](NC(=O)c1cc2[nH]nc(NC(=O)c3ccc(CN4CCOCC4)o3)c2s1)c1ccccc1` [Compound 82, 3-{[5-(morpholin-4-ylmethyl)-2-furoyl]amino}-N-[(1R)-1-phenylethyl]-1H-thieno[3,2-c]pyrazole-5-carboxamide], the figure is less than 100 nM; as for `CN1CCN(c2ccc(C(=O)Nc3n[nH]c4cc(C(=O)NCc5cccc(F)c5)sc34)cc2)CC1` [Compound 94, N-(3-fluorobenzyl)-3-{[4-(4-methylpiperazin-1-yl)benzoyl]amino}-1H-thieno[3,2-c]pyrazole-5-carboxamide], less than 100 nM.

`CN1CCN(c2ccc(C(=O)Nc3n[nH]c4cc(C(=O)NCc5cccc(Cl)c5)sc34)cc2)CC1` [Compound 96, N-(3-chlorobenzyl)-3-{[4-(4-methylpiperazin-1-yl)benzoyl]amino}-1H-thieno[3,2-c]pyrazole-5-carboxamide] registered an IC50 of less than 100 nM. The same measure, in the same setting: as for `CN1CCN(c2ccc(C(=O)Nc3n[nH]c4cc(C(=O)NCc5ccc(Cl)cc5)sc34)cc2)CC1` [Compound 97, N-(4-chlorobenzyl)-3-{[4-(4-methylpiperazin-1-yl)benzoyl]amino}-1H-thieno[3,2-c]pyrazole-5-carboxamide], the figure is less than 100 nM; as for `CN1CCN(c2ccc(C(=O)Nc3n[nH]c4cc(C(=O)NCc5ccc(C(F)(F)F)cc5)sc34)cc2)CC1` [Compound 104, 3-{[4-(4-methylpiperazin-1-yl)benzoyl]amino}-N-[4-(trifluoromethyl)benzyl]-1H-thieno[3,2-c]pyrazole-5-carboxamide], less than 100 nM; as for `CN1CCN(c2ccc(C(=O)Nc3n[nH]c4cc(C(=O)NCc5ccccc5Cl)sc34)cc2)CC1` [Compound 106, N-(2-chlorobenzyl)-3-{[4-(4-methylpiperazin-1-yl)benzoyl]amino}-1H-thieno[3,2-c]pyrazole-5-carboxamide], less than 100 nM.

`CCc1cccc(CC)c1NC(=O)c1cc2[nH]nc(NC(=O)c3ccc(N4CCN(C)CC4)cc3)c2s1` [Compound 107, N-(2,6-diethylphenyl)-3-{[4-(4-methylpiperazin-1-yl)benzoyl]amino}-1H-thieno[3,2-c]pyrazole-5-carboxamide] gave an IC50 of less than 100 nM. Still for that read-out and setting: as for `Cc1cccc(C)c1NC(=O)c1cc2[nH]nc(NC(=O)c3ccc(N4CCN(C)CC4)cc3)c2s1` [Compound 108, N-(2,6-dimethylphenyl)-3-{[4-(4-methylpiperazin-1-yl)benzoyl]amino}-1H-thieno[3,2-c]pyrazole-5-carboxamide], the figure is less than 100 nM; as for `Cc1cccc(Cl)c1NC(=O)c1cc2[nH]nc(NC(=O)c3ccc(N4CCN(C)CC4)cc3)c2s1` [Compound 109, N-(2-chloro-6-methylphenyl)-3-{[4-(4-methylpiperazin-1-yl)benzoyl]amino}-1H-thieno[3,2-c]pyrazole-5-carboxamide], less than 100 nM.

`CN1CCN(c2ccc(C(=O)Nc3n[nH]c4cc(C(=O)N(C)Cc5ccccc5)sc34)cc2)CC1` [Compound 113, N-benzyl-N-methyl-3-{[4-(4-methylpiperazin-1-yl)benzoyl]amino}-1H-thieno[3,2-c]pyrazole-5-carboxamide]: the IC50 is less than 100 nM. Consider `Cc1cccc(Cl)c1CNC(=O)c1cc2[nH]nc(NC(=O)c3ccc(N4CCN(C)CC4)cc3)c2s1` [Compound 122, N-(2-chloro-6-methylbenzyl)-3-{[4-(4-methylpiperazin-1-yl)benzoyl]amino}-1H-thieno[3,2-c]pyrazole-5-carboxamide bis(trifluoroacetate)], for which the IC50 was less than 100 nM. Same read-out and setting: as for `O=C(Nc1n[nH]c2cc(C(=O)NC(c3ccccc3)c3ccccc3)sc12)c1ccc(N2CCOCC2)cc1` [Compound 128, N-benzhydryl-3-[(4-morpholin-4-ylbenzoyl)amino]-1H-thieno[3,2-c]pyrazole-5-carboxamide], the figure is less than 100 nM; as for `COC[C@@H](NC(=O)c1cc2[nH]nc(NC(=O)c3ccc(N4CCOCC4)cc3)c2s1)c1ccccc1` [Compound 129, N-[(1S)-2-methoxy-1-phenylethyl]-3-[(4-morpholin-4-ylbenzoyl)amino]-1H-thieno[3,2-c]pyrazole-5-carboxamide], less than 100 nM.

`CC(NC(=O)c1cc2[nH]nc(NC(=O)c3ccc(N4CCOCC4)cc3)c2s1)c1ccc(Cl)cc1` (stereo not shown) [Compound 130, N-[1-(4-chlorophenyl)ethyl]-3-[(4-morpholin-4-ylbenzoyl)amino]-1H-thieno[3,2-c]pyrazole-5-carboxamide] yielded an IC50 of less than 100 nM. The molecule `O=C(Nc1n[nH]c2cc(C(=O)NCc3ccc(Cl)cc3)sc12)c1ccc(N2CCOCC2)cc1` [Compound 134, N-(4-chlorobenzyl)-3-[(4-morpholin-4-ylbenzoyl)amino]-1H-thieno[3,2-c]pyrazole-5-carboxamide] returned a half-maximal inhibitory concentration (IC50) of less than 100 nM.

Consider `Cc1c(C(=O)NCc2ccc(F)cc2)sc2c(NC(=O)c3cccs3)n[nH]c12` [Compound 146, N-(4-fluorobenzyl)-6-methyl-3-[(thien-2-ylcarbonyl)amino]-1H-thieno[3,2-c]pyrazole-5-carboxamide], for which the half-inhibitory concentration (IC50) is less than 100 nM.

In another assay the target is cdk2/Cyclin A (Homo sapiens, UniProt P24941). Nature of the assay: Inhibition assay of cdk2/Cyclin A activity (SPA). The assay is classed as biochemical. Conditions: 10 µM ATP, 60 min at room temperature. The procedure: as §1, §2
Inhibition assay of cdk2/Cyclin A activity
Kinase reaction: 4 µM in house biotinylated histone H1 (Sigma # H-5505) substrate, 10 µM ATP (0.1 microCi P^33γ-ATP), 1.1 nM Cyclin A/CDK2 complex, inhibitor in a final volume of 30 µl buffer (TRIS HCl 10 mM pH 7.5, MgCl2 10 mM, DTT 7.5 mM + 0.2 mg/ml BSA) were added to each well of a 96 U bottom. After incubation for 60 min at room temperature, the reaction was stopped by addition of 100 µl PBS buffer containing 32 mM EDTA, 500 µM cold ATP, 0.1% Triton X100 and 10mg/ml streptavidin coated SPA beads. After 20 min incubation, 110 µL of suspension were withdrawn and transferred into 96-well OPTIPLATEs containing 100 µl of 5M CsCl. After 4 hours, the plates were read for 2 min in a Packard TOP-Count radioactivity reader.
as §3
The molecule `CN1CCN(C(=O)c2cc3[nH]nc(NC(=O)c4ccc(F)cc4)c3s2)CC1` [Compound 63, 4-fluoro-N-{5-[(4-methylpiperazin-1-yl)carbonyl]-1H-thieno[3,2-c]pyrazol-3-yl}benzamide] returned a concentration for half-maximal inhibition (IC50) of less than 500 nM. The same measure, in the same setting: as for `O=C(Nc1n[nH]c2cc(C(=O)NCc3ccccc3)sc12)c1cc(F)cc(F)c1` [Compound 65, N-benzyl-3-[(3,5-difluorobenzoyl)amino]-1H-thieno[3,2-c]prazole-5-carboxamide], the figure is less than 500 nM; as for `CCCCNC(=O)c1cc2[nH]nc(NC(=O)c3cccs3)c2s1` [Compound 79, N-butyl-3-[(thien-2-ylcarbonyl)amino]-1H-thieno[3,2-c]pyrazole-5-carboxamide], less than 500 nM; as for `CCCCNC(=O)c1cc2[nH]nc(NC(=O)CCCC)c2s1` [Compound 84, N-butyl-3-(pentanoylamino)-1H-thieno[3,2-c]pyrazole-5-carboxamide], less than 500 nM.

`CCCCNC(=O)c1cc2[nH]nc(NC(=O)C3CC3)c2s1` [Compound 85, N-butyl-3-[(cyclopropylcarbonyl)amino]-1H-thieno[3,2-c]pyrazole-5-carboxamide] had a half-maximal inhibitory concentration (IC50) of less than 500 nM. Same read-out and setting: as for `CCCCNC(=O)c1cc2[nH]nc(NC(=O)C3CC3)c2s1` [Compound 86, N-butyl-3-[(cyclopropylcarbonyl)amino]-1H-thieno[3,2-c]pyrazole-5-carboxamide], the figure is less than 500 nM; as for `C=CCNC(=O)c1cc2[nH]nc(NC(=O)NCc3ccccc3)c2s1` [Compound 87, N-allyl-3-{[(benzylamino)carbonyl]amino}-1H-thieno[3,2-c]pyrazole-5-carboxamide], less than 500 nM. On the same count and under the same terms, as for `Cc1c(C(=O)NCc2ccc(F)cc2)sc2c(NC(=O)c3ccc(F)cc3)n[nH]c12` [Compound 145, 3-[(4-fluorobenzoyl)amino]-N-(4-fluorobenzyl)-6-methyl-1H-thieno[3,2-c]pyrazole-5-carboxamide], the figure is less than 500 nM; as for `Cc1c(C(=O)NCc2ccc(F)cc2)sc2c(NC(=O)c3cccs3)n[nH]c12` [Compound 146, N-(4-fluorobenzyl)-6-methyl-3-[(thien-2-ylcarbonyl)amino]-1H-thieno[3,2-c]pyrazole-5-carboxamide], less than 500 nM. Same read-out and setting: as for `CN1CCN(C(=O)c2cc3[nH]nc(NC(=O)c4ccc(F)cc4)c3o2)CC1` [Compound 167, 4-fluoro-N-{5-[(4-methylpiperazin-1-yl)carbonyl]-1H-furo[3,2-c]pyrazol-3-yl}benzamide], the figure is less than 500 nM.

Another assay concerns the target PAK4 (Homo sapiens, UniProt O96013). Kind of assay: PAK4 inhibition. The assay is classed as biochemical.
Details: not given
As to `CN1CCN(c2ccc(C(=O)Nc3n[nH]c4cc(C(=O)NCc5ccccc5)sc34)cc2)CC1` [Compound 91, N-benzyl-3-{[4-(4-methylpiperazin-1-yl)benzoyl]amino}-1H-thieno[3,2-c]pyrazole-5-carboxamide], the IC50 is less than 500 nM. In turn, `CN1CCN(c2ccc(C(=O)Nc3n[nH]c4cc(C(=O)NCc5cccc(Cl)c5)sc34)cc2)CC1` [Compound 96, N-(3-chlorobenzyl)-3-{[4-(4-methylpiperazin-1-yl)benzoyl]amino}-1H-thieno[3,2-c]pyrazole-5-carboxamide] showed an IC50 of less than 500 nM. Same read-out and setting: as for `COC[C@@H](NC(=O)c1cc2[nH]nc(NC(=O)c3ccc(N4CCOCC4)cc3)c2s1)c1ccccc1` [Compound 129, N-[(1S)-2-methoxy-1-phenylethyl]-3-[(4-morpholin-4-ylbenzoyl)amino]-1H-thieno[3,2-c]pyrazole-5-carboxamide], the figure is less than 500 nM.
